Results on six molecules are retold here after ChEMBL document CHEMBL4387792, “Cytotoxic and Antibacterial Cervinomycins B1-4 from a Streptomyces Species” (J Nat Prod, 2019).

Broadly, the IC50 is the point on the concentration scale where inhibition reaches its midpoint. Read a high IC50 as weaker potency in that assay. For orientation: MIC means the lowest concentration that inhibits growth of the organism.

Assay [1] concerns Staphylococcus aureus. Kind of assay: Antibacterial activity against methicillin-sensitive Staphylococcus aureus 15 assessed as prevention of visible bacterial growth incubated for 18 hrs by broth dilution method. It is filed as functional, organism-based.
For assay [2], the system named is Escherichia coli. Briefly: Antibacterial activity against extended-spectrum beta-lactamase non-producing Escherichia coli ATCC 25922 assessed as prevention of visible bacterial growth incubated for 18 hrs by broth dilution method. It is filed as functional, organism-based. (In broth dilution the organism is exposed to a series of concentrations in liquid medium.)

The subject of assay [3] is SW1990. Briefly: Cytotoxicity against human SW1990 cells incubated for 72 hrs by MTT assay. It is filed as functional, cell-based. The note with it: SW1990, 72 h.
Assay [4] concerns PC-3. Briefly: Cytotoxicity against human PC3 cells incubated for 72 hrs by MTT assay. It is filed as functional, cell-based. The note with it: PC-3, 72 h. For orientation: Tetrazolium assays rely on reduction of a dye to a coloured formazan, in cell work by metabolically active cells.
The test system of assay [5] is NCI-H1299. Kind of assay: Cytotoxicity against human NCI-H1299 cells incubated for 72 hrs by MTT assay. The note with it: NCI-H1299, 72 h. Format: functional, cell-based.
Assay [6] concerns Staphylococcus aureus. Briefly: Antibacterial activity against methicillin-resistant Staphylococcus aureus ATCC 33591 assessed as prevention of visible bacterial growth incubated for 18 hrs by broth dilution method. Format: functional. The note with it: ATCC 33591, 18 h.
For assay [7], the system named is Staphylococcus aureus. Kind of assay: Antibacterial activity against methicillin-resistant Staphylococcus aureus 16-30 assessed as prevention of visible bacterial growth incubated for 18 hrs by broth dilution method. Format: functional. The note with it: 16-30, 18 h.
The subject of assay [8] is Enterococcus faecalis. Briefly: Antibacterial activity against vancomycin-resistant Enterococcus faecalis ATCC 51299 assessed as prevention of visible bacterial growth incubated for 18 hrs by broth dilution method. Format: functional. The note with it: ATCC 51299, 18 h.
Assay [9] relates to Enterococcus faecalis. Briefly: Antibacterial activity against vancomycin-resistant Enterococcus faecalis ATCC 51575 assessed as prevention of visible bacterial growth incubated for 18 hrs by broth dilution method. The following applies: ATCC 51575, 18 h. Format: functional.
The test system of assay [10] is Enterococcus faecium. Briefly: Antibacterial activity against vancomycin-resistant Enterococcus faecium ATCC 700221 assessed as prevention of visible bacterial growth incubated for 18 hrs by broth dilution method. It is filed as functional. The following applies: ATCC 700221, 18 h.
Assay [11] concerns Enterococcus faecium. Kind of assay: Antibacterial activity against vancomycin-resistant Enterococcus faecium 12-1 assessed as prevention of visible bacterial growth incubated for 18 hrs by broth dilution method. Format: functional. The following applies: 12-1, 18 h.
Assay [12] concerns Staphylococcus epidermidis. Kind of assay: Antibacterial activity against methicillin-sensitive Staphylococcus epidermidis ATCC 12228 assessed as prevention of visible bacterial growth incubated for 18 hrs by broth dilution method. It is filed as functional, organism-based.
The subject of assay [13] is Staphylococcus epidermidis. Briefly: Antibacterial activity against methicillin-sensitive Staphylococcus epidermidis 16-4 assessed as prevention of visible bacterial growth incubated for 18 hrs by broth dilution method. Format: functional, organism-based.
In assay [14] the test system is Staphylococcus epidermidis. Briefly: Antibacterial activity against methicillin-resistant Staphylococcus epidermidis 16-5 assessed as prevention of visible bacterial growth incubated for 18 hrs by broth dilution method. It is filed as functional, organism-based.
For assay [15], the system named is Staphylococcus aureus. Briefly: Antibacterial activity against methicillin-sensitive Staphylococcus aureus ATCC 29213 assessed as prevention of visible bacterial growth incubated for 18 hrs by broth dilution method. It is filed as functional, organism-based.
Assay [16] relates to Staphylococcus aureus. Kind of assay: Antibacterial activity against methicillin-sensitive Staphylococcus aureus 16-1 assessed as prevention of visible bacterial growth incubated for 18 hrs by broth dilution method. It is filed as functional, organism-based.
The subject of assay [17] is Enterococcus faecalis. Kind of assay: Antibacterial activity against vancomycin-sensitive Enterococcus faecalis ATCC 29212 assessed as prevention of visible bacterial growth incubated for 18 hrs by broth dilution method. Format: functional, organism-based.
The subject of assay [18] is Enterococcus faecalis. Briefly: Antibacterial activity against vancomycin-sensitive Enterococcus faecalis 16-6 assessed as prevention of visible bacterial growth incubated for 18 hrs by broth dilution method. It is filed as functional, organism-based.
Assay [19] relates to Enterococcus faecium. Briefly: Antibacterial activity against vancomycin-sensitive Enterococcus faecium 16-5 assessed as prevention of visible bacterial growth incubated for 18 hrs by broth dilution method. It is filed as functional, organism-based.
Assay [20] concerns Escherichia coli. Briefly: Antibacterial activity against extended-spectrum beta-lactamase producing Escherichia coli ATCC 35218 assessed as prevention of visible bacterial growth incubated for 18 hrs by broth dilution method. Format: functional, organism-based.
In assay [21] the test system is Klebsiella pneumoniae. Kind of assay: Antibacterial activity against extended-spectrum beta-lactamase producing Klebsiella pneumoniae 700603 assessed as prevention of visible bacterial growth incubated for 18 hrs by broth dilution method. Format: functional, organism-based.
For assay [22], the system named is Klebsiella pneumoniae. Kind of assay: Antibacterial activity against extended-spectrum beta-lactamase non-producing Klebsiella pneumoniae 16-2 assessed as prevention of visible bacterial growth incubated for 18 hrs by broth dilution method. It is filed as functional, organism-based.
For assay [23], the system named is Pseudomonas aeruginosa. Kind of assay: Antibacterial activity against Pseudomonas aeruginosa ATCC 27853 assessed as prevention of visible bacterial growth incubated for 18 hrs by broth dilution method. Format: functional, organism-based.
The test system of assay [24] is Acinetobacter calcoaceticus. Kind of assay: Antibacterial activity against Acinetobacter calcoaceticus ATCC 19606 assessed as prevention of visible bacterial growth incubated for 18 hrs by broth dilution method. It is filed as functional, organism-based.
The test system of assay [25] is Enterobacter cloacae. Briefly: Antibacterial activity against Enterobacter cloacae ATCC 43560 assessed as prevention of visible bacterial growth incubated for 18 hrs by broth dilution method. Format: functional, organism-based.
The subject of assay [26] is Shigella flexneri. Kind of assay: Antibacterial activity against Shigella flexneri ATCC 12022 assessed as prevention of visible bacterial growth incubated for 18 hrs by broth dilution method. It is filed as functional, organism-based.

≈ marks a conversion by molar mass, not a printed value. Calls of active or inactive are those of the source. No cut-off for these calls is given here.

For `COc1cc2oc3c(c(=O)c2cc1OC)C(=O)C1=C(CCc2cc4c(c(O)c21)C(=O)N1CCO[C@]1(C)C4)C3=O`, the result in assay [1], in [2], in [12], in [13], in assay [14] and in assay [15] was inactive. In addition, the outcome in [16], in assay [17], in assay [18], in [19], in assay [20] and in [21] was inactive. The result in [22], in [23], in assay [24], in [25] and in assay [26] was inactive. Moreover, the IC50 in assay [3] came to 5.4 nM; in assay [4], 3.5 nM; in assay [5] it was 2 nM. Further, the MIC in assay [6] was 0.06 µg/mL (≈ 0.113 µM); in assay [7], 0.12 µg/mL (≈ 0.227 µM); in assay [8], 0.12 µg/mL (≈ 0.227 µM); in assay [9], 0.12 µg/mL (≈ 0.227 µM); in [10], 0.06 µg/mL (≈ 0.113 µM); in [11], 0.12 µg/mL (≈ 0.227 µM).

With `COc1cc2oc3c(O)c4c(c(O)c3c(=O)c2cc1OC)-c1c(cc2c(c1O)C(=O)N1CCO[C@]1(C)C2)CC4`, the result in assay [1], in [2], in assay [12], in assay [13], in assay [14] and in assay [15] was inactive. For the same molecule, the outcome in [16], in assay [17], in assay [18], in [19], in [20] and in assay [21] was inactive. Further, the outcome in assay [22], in assay [23], in assay [24], in assay [25] and in assay [26] was inactive. For the same molecule, the IC50 in [3] came to 2.2 nM; in [4], 2.2 nM; in [5] it was 0.1 nM. Further, the MIC stood at 0.06 µg/mL (≈ 0.113 µM) in assay [6]; 0.06 µg/mL (≈ 0.113 µM) in [7]; 0.06 µg/mL (≈ 0.113 µM) in assay [8]; 0.12 µg/mL (≈ 0.226 µM) in assay [9]; 0.12 µg/mL (≈ 0.226 µM) in [10]; 0.03 µg/mL (≈ 0.0564 µM) in assay [11].

On to `C[C@H]1COc2c(N3CCN(C)CC3)c(F)cc3c(=O)c(C(=O)O)cn1c23.C[C@H]1COc2c(N3CCN(C)CC3)c(F)cc3c(=O)c(C(=O)O)cn1c23.O` [LEVOFLOXACIN], for which the minimal inhibitory concentration (MIC) turned out to be 0.12 µg/mL in assay [6]; 32 µg/mL in [7]; 1 µg/mL in assay [8]; 2 µg/mL in assay [9]; 128 µg/mL in assay [10]; 128 µg/mL in assay [11].

Regarding `COc1cc2oc3c(c(=O)c2cc1O)C(=O)C1=C(CCc2cc4c(c(O)c21)C(=O)N1CCO[C@]1(C)C4)C3=O`, the outcome in assay [1], in [2], in [12], in assay [13], in assay [14] and in [15] was inactive. In addition, the result in assay [16], in assay [17], in assay [18], in [19], in assay [20] and in assay [21] was inactive. Moreover, the outcome in [22], in [23], in assay [24], in [25] and in assay [26] was inactive. Further, the IC50 in assay [3] stood at 20.9 nM; in assay [4], 34.3 nM; in assay [5], 107 nM. The MIC in assay [6] stood at 0.25 µg/mL (≈ 0.485 µM); in assay [7], 0.12 µg/mL (≈ 0.233 µM); in assay [8] it was 0.25 µg/mL (≈ 0.485 µM); in [9] it was 0.5 µg/mL (≈ 0.97 µM); in [10] it was 0.5 µg/mL (≈ 0.97 µM); in assay [11], 0.25 µg/mL (≈ 0.485 µM).

In the case of `COc1cc2oc3c(O)c4c(c(O)c3c(=O)c2cc1O)-c1c(cc2c(c1O)C(=O)N1CCO[C@]1(C)C2)CC4`, the result in assay [1], in [2], in assay [12], in assay [13], in assay [14] and in assay [15] was inactive. For the same molecule, the result in assay [16], in assay [17], in assay [18], in assay [19], in assay [20] and in assay [21] was inactive. For the same molecule, the result in [22], in [23], in [24], in [25] and in [26] was inactive. Also, the figures for the IC50 in assay [3], in assay [4] and in assay [5] were 0.8 nM, 4.4 nM and 49.1 nM, respectively. In addition, the MIC in assay [6] came to 0.016 µg/mL (≈ 0.0309 µM); in assay [7] it was 0.008 µg/mL (≈ 0.0155 µM); in assay [8], 0.016 µg/mL (≈ 0.0309 µM); in assay [9], 0.016 µg/mL (≈ 0.0309 µM); in assay [10] it was 0.03 µg/mL (≈ 0.058 µM); in assay [11], 0.03 µg/mL (≈ 0.058 µM).

On to `COc1cc2oc3c(c(=O)c2cc1OC)C(=O)c1c(ccc2cc4c(c(O)c12)C(=O)N1CCO[C@]1(C)C4)C3=O`, for which the IC50 in assay [3] was determined as 704 nM; in assay [4], 1310 nM; in [5], 252 nM. The minimum inhibitory concentration (MIC) in assay [6] was found to be 0.5 µg/mL (≈ 0.948 µM); in assay [7] it was 0.5 µg/mL (≈ 0.948 µM); in assay [8], 0.12 µg/mL (≈ 0.227 µM); in assay [9] it was 0.12 µg/mL (≈ 0.227 µM); in assay [10] it was 1 µg/mL (≈ 1.9 µM); in [11] it was 1 µg/mL (≈ 1.9 µM).
